Tests used:
hERG = hERG (Homo sapiens (Human), UniProt Q12809); experiment: hERG Qpatch assay; format: cell-based
Experimental: Example 3. hERG Qpatch Assay Protocol
This assay was performed by the method described in Skepper et al., J. Med. Chem. 2020, 63, 7773-7816:
hERG expressing cell lines were produced in-house at Novartis using CHO-K1 T-Rex inducible plasmid system (Invitrogen) as described previously (Cao et al., Assay Drug Dev. Technol. 2010, 8, 766-780). Cell lines were maintained in Ham's F12 nutrient mixture containing 10% FBS, blasticidin ([…]; InvivoGen), hygromycin B ([…]; InvivoGen), Zeocin ([…], Invitrogen), and neomycin ([…], Invitrogen) using SelecT automated cell culture system (TAP Biosystems, Cambridge, U.K.). hERG and hCav1.2 channels expression was induced with tetracycline (0.25-1 μg/mL, Invitrogen) at least 24 h prior to the experiment.
hERG currents were recorded using the Qpatch automated patch clamp systems (Sophion Bioscience Inc., North Brunswick, NJ) in the whole (single) cell configuration. hERG expressing CHO-K1 cells were harvested with Detachin (Genlantis) and stored in the modified serum-free SFM-2 media (Life Technologies) at room temperature. The extracellular solution contained (in mM) NaCl (145), KCl (4), MgCl2 (1), CaCl2 (2), and HEPES (10), pH 7.4, with NaOH. The intracellular solution contained KCl (135), MgCl2 (1.75), CaCl2 (5.4), EGTA (10), K2-ATP (4), and HEPES (10), pH 7.2, with KOH. After whole cell configuration was achieved, the cell was held at −90 mV, and a 0.1 s pulse to −50 mV was delivered to measure the leaking current, which was subtracted from the tail current online. Then the cell was depolarized to +20 mV for 4 s (prepulse), followed by a 4 s test pulse to −50 mV to reveal the hERG tail current. To monitor changes in the current amplitude, this voltage protocol was repeatedly applied every 20 s. Test compounds were first diluted in DMSO for six dose-response experiments and then dissolved in the extracellular solution using Freedom EVO liquid handling robotic system (Tecan, Männedorf, Switzerland). The final DMSO concentration in samples was 0.3% v/v. Amitriptyline (Sigma) was tested as a positive control. Data were analyzed using in-house developed MatLab-based program (MathWorks, Natick, MA

P-glycoprotein (P-gp) = P-glycoprotein (P-gp) (Homo sapiens (Human), UniProt P08183); experiment: MDCK-MDR1 permeability / efflux assay; format: in vitro ADME; conditions: for efflux ratio at 120 min, 10 μM: dog, MDCK-MDR1, pH 7.4, efflux ratio, read-out: MDCK-MDR1 ER
P-glycoprotein (P-gp), sequence (P08183 whole entry): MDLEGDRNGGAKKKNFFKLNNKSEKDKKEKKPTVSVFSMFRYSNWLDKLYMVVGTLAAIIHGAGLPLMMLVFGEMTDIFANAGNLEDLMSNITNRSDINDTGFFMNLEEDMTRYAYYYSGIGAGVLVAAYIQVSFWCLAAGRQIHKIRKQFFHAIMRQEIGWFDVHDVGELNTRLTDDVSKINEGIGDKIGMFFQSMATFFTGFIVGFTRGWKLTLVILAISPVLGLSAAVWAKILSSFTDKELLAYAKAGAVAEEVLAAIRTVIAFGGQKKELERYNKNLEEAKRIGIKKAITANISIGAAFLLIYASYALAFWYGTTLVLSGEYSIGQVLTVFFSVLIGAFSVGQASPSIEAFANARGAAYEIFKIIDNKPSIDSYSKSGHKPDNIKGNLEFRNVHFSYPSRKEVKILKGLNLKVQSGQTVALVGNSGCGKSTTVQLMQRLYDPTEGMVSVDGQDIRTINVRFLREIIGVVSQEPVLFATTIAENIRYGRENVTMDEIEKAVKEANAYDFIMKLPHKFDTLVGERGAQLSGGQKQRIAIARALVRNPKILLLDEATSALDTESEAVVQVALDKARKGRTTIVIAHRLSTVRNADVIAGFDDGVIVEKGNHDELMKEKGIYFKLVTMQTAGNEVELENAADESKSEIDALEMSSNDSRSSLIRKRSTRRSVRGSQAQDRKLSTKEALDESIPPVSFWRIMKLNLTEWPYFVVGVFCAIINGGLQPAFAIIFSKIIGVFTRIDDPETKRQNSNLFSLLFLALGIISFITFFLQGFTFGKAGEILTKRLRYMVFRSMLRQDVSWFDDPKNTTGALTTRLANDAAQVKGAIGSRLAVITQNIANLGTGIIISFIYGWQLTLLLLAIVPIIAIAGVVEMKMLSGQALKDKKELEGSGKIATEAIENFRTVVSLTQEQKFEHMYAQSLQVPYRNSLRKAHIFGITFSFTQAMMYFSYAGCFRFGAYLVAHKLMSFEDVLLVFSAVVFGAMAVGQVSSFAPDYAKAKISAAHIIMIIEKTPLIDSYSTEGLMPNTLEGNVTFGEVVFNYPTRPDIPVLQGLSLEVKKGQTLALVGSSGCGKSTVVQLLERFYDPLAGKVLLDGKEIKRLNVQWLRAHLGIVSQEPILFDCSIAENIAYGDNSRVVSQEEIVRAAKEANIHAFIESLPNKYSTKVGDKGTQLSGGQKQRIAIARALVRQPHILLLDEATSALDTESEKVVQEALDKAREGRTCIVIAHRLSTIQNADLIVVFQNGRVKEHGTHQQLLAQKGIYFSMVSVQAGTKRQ
Outline: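 MDCK-MDR1 monolayers grown 4 days on Transwells; 10 μM compound in HBSS/10 mM HEPES pH 7.4 with 0.02% BSA, run A→B and B→A for 120 min at 37 °C without shaking. Donor and receiver concentrations by LC-MS/MS; Papp and recovery calculated, efflux ratio from B→A vs A→B.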

NR2B = NR2B (Rattus norvegicus (Rat), UniProt Q00960); experiment: NR2B rat cortical neuron calcium influx assay; format: cell-based; conditions: for IC50: rat cortical neurons, glutamate and glycine stimulated calcium influx
NR2B, sequence (Q00960 27-1482, other chains not shown): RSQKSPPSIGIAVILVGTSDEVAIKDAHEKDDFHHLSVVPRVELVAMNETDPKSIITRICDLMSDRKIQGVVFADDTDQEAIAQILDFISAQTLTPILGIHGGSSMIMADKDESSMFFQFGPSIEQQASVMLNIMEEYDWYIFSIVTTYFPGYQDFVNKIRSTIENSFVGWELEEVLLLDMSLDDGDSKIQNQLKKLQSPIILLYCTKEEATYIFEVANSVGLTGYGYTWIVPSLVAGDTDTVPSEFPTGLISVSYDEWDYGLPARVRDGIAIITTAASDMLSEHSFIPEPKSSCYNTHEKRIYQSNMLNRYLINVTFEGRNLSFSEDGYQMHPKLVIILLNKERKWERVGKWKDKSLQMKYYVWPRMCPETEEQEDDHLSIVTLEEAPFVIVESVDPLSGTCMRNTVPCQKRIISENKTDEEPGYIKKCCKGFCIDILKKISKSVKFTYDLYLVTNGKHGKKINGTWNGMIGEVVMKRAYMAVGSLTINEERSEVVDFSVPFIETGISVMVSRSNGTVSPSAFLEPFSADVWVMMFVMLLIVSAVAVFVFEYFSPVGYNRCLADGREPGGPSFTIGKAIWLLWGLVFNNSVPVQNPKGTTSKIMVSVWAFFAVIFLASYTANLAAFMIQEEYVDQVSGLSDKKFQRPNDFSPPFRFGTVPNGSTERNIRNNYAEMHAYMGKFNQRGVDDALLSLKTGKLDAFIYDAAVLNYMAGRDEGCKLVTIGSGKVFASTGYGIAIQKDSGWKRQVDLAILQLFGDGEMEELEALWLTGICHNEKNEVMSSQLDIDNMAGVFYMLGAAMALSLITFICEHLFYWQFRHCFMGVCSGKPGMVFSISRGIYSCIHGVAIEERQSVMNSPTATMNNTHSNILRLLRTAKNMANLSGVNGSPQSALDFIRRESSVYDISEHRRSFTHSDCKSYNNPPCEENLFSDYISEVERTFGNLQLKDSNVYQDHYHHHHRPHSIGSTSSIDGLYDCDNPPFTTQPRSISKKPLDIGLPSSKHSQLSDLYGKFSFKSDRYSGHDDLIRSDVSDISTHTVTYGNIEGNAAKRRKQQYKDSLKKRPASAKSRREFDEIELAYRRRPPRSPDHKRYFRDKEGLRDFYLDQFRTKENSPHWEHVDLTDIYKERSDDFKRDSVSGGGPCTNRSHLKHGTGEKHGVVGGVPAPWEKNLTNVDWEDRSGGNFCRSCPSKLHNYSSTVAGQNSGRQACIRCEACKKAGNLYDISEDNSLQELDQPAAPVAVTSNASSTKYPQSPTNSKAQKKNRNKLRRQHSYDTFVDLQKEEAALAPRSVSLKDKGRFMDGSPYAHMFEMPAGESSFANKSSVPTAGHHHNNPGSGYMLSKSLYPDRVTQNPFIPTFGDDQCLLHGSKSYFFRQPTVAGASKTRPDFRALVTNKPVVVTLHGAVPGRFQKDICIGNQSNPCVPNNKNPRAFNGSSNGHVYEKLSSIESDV
Outline: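 Primary cortical neurons from E18 Sprague Dawley rat embryos, cultured 2 days, were loaded with Calcium 6 dye in 1.8 mM Ca-HBSS and preincubated with compound 2 h at 37° C. Glutamate plus glycine was added and fluorescence read for 2 min as peak/baseline ratio; duplicate dose-response curves gave IC50 (μM) and maximal inhibition.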

[1] = Table 2, hERG expressing CHO-K1 cells

hERG, sequence (Q12809 whole entry): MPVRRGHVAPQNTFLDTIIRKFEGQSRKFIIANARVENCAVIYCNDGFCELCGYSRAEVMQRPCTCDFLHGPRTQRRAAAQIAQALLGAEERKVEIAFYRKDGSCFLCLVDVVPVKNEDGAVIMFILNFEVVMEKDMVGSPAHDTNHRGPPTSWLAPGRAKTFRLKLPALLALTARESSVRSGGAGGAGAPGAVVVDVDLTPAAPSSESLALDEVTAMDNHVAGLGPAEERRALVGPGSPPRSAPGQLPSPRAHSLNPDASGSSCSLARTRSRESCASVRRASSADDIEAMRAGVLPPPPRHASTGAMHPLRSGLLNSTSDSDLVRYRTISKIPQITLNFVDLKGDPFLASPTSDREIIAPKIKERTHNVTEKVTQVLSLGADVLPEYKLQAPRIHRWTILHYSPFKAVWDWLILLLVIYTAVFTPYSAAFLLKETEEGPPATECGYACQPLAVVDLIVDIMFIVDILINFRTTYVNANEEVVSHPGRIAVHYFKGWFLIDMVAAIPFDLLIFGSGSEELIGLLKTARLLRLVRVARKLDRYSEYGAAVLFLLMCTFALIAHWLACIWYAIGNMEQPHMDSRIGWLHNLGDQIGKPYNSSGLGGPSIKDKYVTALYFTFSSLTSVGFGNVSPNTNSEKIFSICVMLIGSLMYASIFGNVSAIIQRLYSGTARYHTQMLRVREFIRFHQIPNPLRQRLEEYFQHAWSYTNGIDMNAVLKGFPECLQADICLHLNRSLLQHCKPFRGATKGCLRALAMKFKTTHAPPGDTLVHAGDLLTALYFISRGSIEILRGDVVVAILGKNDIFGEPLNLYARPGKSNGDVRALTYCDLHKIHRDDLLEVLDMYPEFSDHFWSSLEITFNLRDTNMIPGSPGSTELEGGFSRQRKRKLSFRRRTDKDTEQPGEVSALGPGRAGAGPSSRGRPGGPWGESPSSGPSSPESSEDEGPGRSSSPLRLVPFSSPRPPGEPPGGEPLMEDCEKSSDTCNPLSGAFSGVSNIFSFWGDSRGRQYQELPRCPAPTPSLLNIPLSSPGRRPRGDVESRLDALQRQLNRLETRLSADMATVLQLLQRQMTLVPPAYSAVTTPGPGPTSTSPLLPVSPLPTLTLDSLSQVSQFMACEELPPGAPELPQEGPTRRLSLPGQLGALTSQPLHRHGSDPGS

| MDCK-MDR1 ER (P-glycoprotein (P-gp); efflux ratio, 10 μM, 120 min) | relative potency in the NR2B rat cortical neuron calcium influx assay (NR2B; comparison within Examples 5A/5B/5C/5D) | IC50 (NR2B) | efflux ratio at 120 min, 10 μM (P-glycoprotein (P-gp)) | SMILES | IC50 (hERG; Table 3, matched pairs) | IC50 (hERG; [1]) |
| --- | --- | --- | --- | --- | --- | --- |
|  |  |  |  | O=C1CCc2cc(C(O)CN3C[C@H]4C[C@H](Oc5ccccc5F)C[C@H]4C3)ccc2N1 (mixture of isomers) [Mixture of two isomers at benzylic position, reference compound] | 500 nM |  |
| 1.93 | more potent than Examples 5A and 5B | 0.61 nM |  | O=C1CCc2cc(C(O)CN3C[C@H]4C[C@H](Oc5ccccc5F)C[C@@]4(O)C3)ccc2N1 (single isomer, unassigned) [Example 5D] | 5900 nM | 5900 nM |
|  |  | 1.9 nM | 2.07 | O=C1CCCc2cc([C@H](O)CN3C[C@H]4C[C@H](Oc5ccccc5)C[C@@]4(O)C3)ccc2N1 (single isomer, unassigned) [Example 7B] |  | 15200 nM |
|  |  | 0.8 nM | 3.68 | O=c1ccc2cc([C@@H](O)CN3C[C@H]4C[C@H](Oc5ccccc5)C[C@@]4(O)C3)ccc2[nH]1 (single isomer, unassigned) [Example 8A] |  | 2800 nM |
|  |  | 0.41 nM | 1.11 | O=C1CCc2cc([C@@H](O)CN3C[C@H]4C[C@H](Oc5ccccc5)C[C@@]4(O)C3)c(F)cc2N1 (single isomer, unassigned) [Example 10A] |  | 2100 nM |
|  |  | 0.18 nM | 2.06 | O=C1Nc2ccc([C@H](O)CN3C[C@H]4C[C@H](Oc5ccccc5)C[C@@]4(O)C3)cc2CS1 (single isomer, unassigned) [Example 14B] |  | 1300 nM |
|  |  | 0.051 nM | 0.66 | O=C1Nc2c(F)cc([C@@H](O)CN3C[C@H]4C[C@H](Oc5ccccc5)C[C@@]4(O)C3)cc2CS1 (single isomer, unassigned) [Example 16A] |  | 400 nM |
|  |  | 0.08 nM | 0.75 | O=C1Nc2c(F)cc([C@H](O)CN3C[C@H]4C[C@H](Oc5ccccc5)C[C@@]4(O)C3)cc2CS1 (single isomer, unassigned) [Example 16B] |  | 200 nM |
|  |  | 0.013 nM | 1.11 | O=c1[nH]c2ccc([C@@H](O)CN3C[C@H]4C[C@H](Oc5ccccc5)C[C@@]4(O)C3)cc2s1 (single isomer, unassigned) [Example 17A] |  | 200 nM |
|  |  | 0.012 nM |  | O=c1[nH]c2ccc([C@H](O)CN3C[C@H]4C[C@H](Oc5ccccc5F)C[C@@]4(O)C3)cc2s1 (single isomer, unassigned) [Example 18B] |  | 1200 nM |
|  |  | 0.021 nM | 1.46 | O=C1CCc2cc([C@@H](O)CN3C[C@@H]4C[C@@H](Oc5cccc(F)c5F)C[C@]4(O)C3)ccc2N1 (single isomer, unassigned) [Example 24C] |  | 1200 nM |
|  |  | 0.83 nM | 3.32 | O=C1Nc2ccc([C@@H](O)CN3C[C@H]4C[C@H](Oc5ccccc5)C[C@@]4(O)C3)cc2CO1 (single isomer, unassigned) [Example 28A] |  | 2400 nM |
|  |  | 11 nM | 4.24 | O=C1CCc2cc([C@H](O)CN3C[C@H]4C[C@H](Oc5ccccc5F)[C@H](O)[C@@]4(O)C3)cc(F)c2N1 (single isomer, unassigned) [Example 29B] |  | 12500 nM |
|  |  | 10 nM | 1.63 | O=C1CCc2cc([C@@H](O)CN3C[C@H]4C[C@H](Oc5ccccc5)C[C@@]4(O)C3)cc(F)c2N1 (single isomer, unassigned) [Example 31A] |  | 7300 nM |
|  |  | 4.8 nM |  | O=C1CCc2cc([C@H](O)CN3C[C@H]4C[C@H](Oc5ccccc5)C[C@@]4(O)C3)cc(F)c2N1 (single isomer, unassigned) [Example 31B] |  | 3900 nM |
|  |  | 4.9 nM | 1.87 | O=C1Nc2c(F)cc([C@@H](O)CN3C[C@H]4C[C@H](Oc5ccccc5)C[C@@]4(O)C3)cc2CO1 (single isomer, unassigned) [Example 33A] |  | 8200 nM |
